We go through 1 molecule from patent US20020102893A1, “ANTI-TACK SPANDEX FIBERS CONTAINING ANTIMICROBIAL AGENTS THEREIN AND FABRICS MADE THEREFROM” (priority 2000, published 2002).

The nature of series [1]: Discoloration (photoreduction) of spandex yarns after exposure to indoor fluorescent light. It is filed as physicochemical. The note with it: after 1 month under typical indoor (fluorescent) light; antimicrobial within spandex yarn. How it is done: The Example spandex yarns were also tested for discoloration (photoreduction) after exposure to typical indoor (fluorescent) light after 1 month of such storage. […] Thus, for this purpose AlphaSan®-type antimicrobials are most preferred. […] Thus, for anti-tack, discoloration, and resiliency within and on the target spandex yarns, the AlphaSan® antimicrobials are, again, most preferred. The discoloration results are as follows, again with a non-antimicrobial control for comparison: […]

The conditions of series [2]: no test described; cited from earlier work.

On to `Oc1cc(Cl)ccc1Oc1ccc(Cl)cc1Cl` [triclosan], for which the “discoloration (photoreduction) performance, in words” value in series [1] was “excellent colorations”. Further, in series [2], the water solubility result is listed as “highly water soluble”.
